Consider eleven compounds from US8440842B2, “Antimicrobial compounds, their synthesis and their use for treatment of mammalian infections” (Leibniz-Institut fuer Naturstoff-Forschung und …, priority 2007, dated 2013).

In brackets after ≈: the same amount, converted by molar mass. Read-outs that look alike come from different tables or passages of the source. A value given as a limit tells only on which side of the number the result lay.

Series [1] concerns M. fortuitum B. In words: MIC by broth micro dilution method in Mueller-Hinton broth (NCCLS). Conditions: Mycolicibacterium fortuitum, read-out: M. fortuitum MIC. Type of series: cell-based. The method, then:
(§1) Determination of the in vitro inhibitory activity of the compounds of the invention against mycobacteria.
(§2) The antibacterial activities of the compounds against Mycobacterium smegmatis SG 987, M. aurum SB66, M. vaccae IMET 10670 and M. fortuitum B were tested by determination of minimal inhibitory concentrations (MIC) by the broth micro dilution method in Mueller-Hinton broth (Difco) according to the NCCLS guidelines [National Committee for Clinical Laboratory Standards: Methods for dilution antimicrobial susceptibility tests for bacteria that grow aerobically; 5th Ed.; Villanova, Ed.; Approved standard Document M7-A5. NCCLS, (2000)].

The subject of series [2] is M. vaccae IMET 10670. The series is described as above. Type of series: cell-based. The note with it: Mycolicibacterium vaccae. How it is done:
as §1, §2

Series [3] deals with Mycobacterium smegmatis SG 987. Described as above. Format: cell-based. Conditions: Mycolicibacterium smegmatis. How it is done:
as §1, §2

For series [4], the system named is M. tuberculosis H37Rv. In words: resazurin reduction assay (MIC96), Alamar Blue method. Format: cell-based. The note with it: Mycobacterium tuberculosis, read-out: minimal inhibitory concentrations (MIC) M. tuberculosis H37Rv. How it is done: Activity against M. tuberculosis H37Rv was determined by the resazurin reduction assay (MIC96) too. The method was described in detail in: P. Quillardet, O. Huisman, R. D'Ari, M. Hofnung, Proc. Natl. Acad. Sci. USA, 1982, 79, 5971-5; J. C. Palomino, A. Martin, M. Camacho, H. Guerra, J. Swings, F. Portaels, Antimicrob. Agents Chemother., 2002, 46, 2720-2.

Series [5] concerns M. tuberculosis H37Rv. In words: MIC and MBC, classical method (liquid Shkolnikova medium, Lowenstein-Jensen medium). Type of series: cell-based. The note with it: Mycobacterium tuberculosis; for MIC: 336 h.
The mark [6] stands for this setting: broth micro dilution, Mueller-Hinton broth.
[7] abbreviates: IMET10670, broth micro dilution, Mueller-Hinton broth, read-out: M. vaccae MIC.
Where [8] appears, read: SG987, broth micro dilution, Mueller-Hinton broth, read-out: M. smegmatis MIC.
Where [9] appears, read: strain H37Rv, liquid Shkolnikova medium, 14 days at 37° C., read-out: MIC.
[10] abbreviates: strain H37Rv, solid drug free Lowenstein-Jensen medium, 21-28 days, read-out: MBC.

`O=c1nc(N2CCN(c3ccc(Cl)cc3)CC2)sc2c([N+](=O)[O-])cc([N+](=O)[O-])cc12` [Compound 1, 2-[4-(4-Chlorophenyl)piperazin-1-yl]-6,8-dinitro-4H-1,3-benzothiazin-4-one] showed a melting point of 279 to 281 °C. In series [1], the MIC was determined as 780 ng/mL (≈ 1740 nM). For the same compound, the MIC in series [2] (IMET10670, read-out: M. vaccae MIC) amounted to 6.2 ng/mL (≈ 13.8 nM). Besides, the MIC in series [3] (SG987, read-out: M. smegmatis MIC) is 780 ng/mL (≈ 1740 nM).
The compound `Cc1ccc(Cl)cc1N1CCN(c2nc(=O)c3cc(C(F)(F)F)cc([N+](=O)[O-])c3s2)CC1` [Compound 2, 2-[4-(5-chloro-2-methylphenyl)piperazin-1-yl]-8-nitro-6-(trifluoromethyl)-4H-1,3-benzothiazin-4-one] had a melting point of 158 to 161 °C. Further, the MIC in series [1] (setting [6]) is 31 ng/mL (≈ 63.9 nM). For the same compound, the MIC in series [2] (setting [7]) worked out at 8 ng/mL (≈ 16.5 nM). In addition, the MIC in series [3] (setting [8]) worked out at 50 ng/mL (≈ 103 nM).
`O=c1nc(N2CCN(c3cccc(C(F)(F)F)c3)CC2)sc2c([N+](=O)[O-])cc(C(F)(F)F)cc12` [Compound 3, 8-Nitro-6-(trifluoromethyl)-2-{4-[3-(trifluoromethyl)phenyl]piperazin-1-yl}-4H-1,3-benzothiazin-4-one] yielded a melting point of 201 to 203 °C. Moreover, the MIC in series [1] (setting [6]) was found to be 3.1 ng/mL (≈ 6.15 nM). Also, the MIC in series [2] (setting [7]) worked out at 3.1 ng/mL (≈ 6.15 nM). Further, in series [3] (setting [8]), the MIC was determined as 40 ng/mL (≈ 79.3 nM).
As to `CCN(Cc1ccccc1)c1nc(=O)c2cc(C(F)(F)F)cc([N+](=O)[O-])c2s1` [Compound 4, 2-[Benzyl(ethyl)amino]-8-nitro-6-(trifluoromethyl)-4H-1,3-benzothiazin-4-one], the melting point was in the range of 94 to 97 °C. The MIC in series [4] is 2 ng/mL (≈ 4.89 nM). Also, the MIC in series [1] (setting [6]) was determined as 6.2 ng/mL (≈ 15.1 nM). Moreover, the MIC in series [2] (setting [7]) was 0.8 ng/mL (≈ 1.95 nM). In series [3] (setting [8]), the MIC was 6.2 ng/mL (≈ 15.1 nM).
As to `CN(Cc1ccccc1)c1nc(=O)c2cc(C(F)(F)F)cc([N+](=O)[O-])c2s1` [Compound 5, 2-[Benzyl(methyl)amino]-8-nitro-6-(trifluoromethyl)-4H-1,3-benzothiazin-4-one], the melting point is 120 to 124 °C. In addition, the MIC in series [4] worked out at 3 ng/mL (≈ 7.59 nM). The MIC in series [1] (setting [6]) worked out at 15.6 ng/mL (≈ 39.5 nM). For the same compound, the MIC in series [2] (setting [7]) came to 0.5 ng/mL (≈ 1.26 nM). For the same compound, the MIC in series [3] (setting [8]) came to 15.6 ng/mL (≈ 39.5 nM). In series [5] (H37RV), this compound gave an MBC of 3120 ng/mL (≈ 7890 nM) and an MIC of 1560 ng/mL (≈ 3950 nM).
Turning to `O=c1nc(N2CCN(c3ccccc3F)CC2)sc2c([N+](=O)[O-])cc(C(F)(F)F)cc12` [Compound 6, 2-[4-(2-Fluorophenyl)piperazin-1-yl]-8-nitro-6-(trifluoromethyl)-4H-1,3-benzothiazin-4-one], the melting point was in the range of 164 to 168 °C. In addition, in series [1] (setting [6]), the MIC worked out at 5 ng/mL (≈ 11 nM). In series [2] (setting [7]), the MIC was 5 ng/mL (≈ 11 nM). Moreover, in series [3] (setting [8]), the MIC is 5 ng/mL (≈ 11 nM).
Consider `O=c1nc(N2CCN(Cc3ccccc3)CC2)sc2c([N+](=O)[O-])cc(C(F)(F)F)cc12` [Compound 7, 2-(4-Benzylpiperazin-1-yl)-8-nitro-6-(trifluoromethyl)-4H-1,3-benzothiazin-4-one], for which the melting point lay within 161 to 163 °C. Moreover, the MIC in series [1] (setting [6]) came out at 50 ng/mL (≈ 111 nM). Further, in series [2] (setting [7]), the MIC is 50 ng/mL (≈ 111 nM). Also, the MIC in series [3] (setting [8]) is 50 ng/mL (≈ 111 nM).
For the compound `O=c1nc(NCc2ccccc2)sc2c([N+](=O)[O-])cc(C(F)(F)F)cc12` [Compound 8, 2-(Benzylamino)-8-nitro-6-(trifluoromethyl)-4H-1,3-benzothiazin-4-one], the melting point lay in the range of 192 to 194 °C. Moreover, the MIC in series [4] stood at 50 ng/mL (≈ 131 nM). Further, the MIC in series [1] (setting [6]) amounted to 0.78 ng/mL (≈ 2.05 nM). For the same compound, the MIC in series [2] (setting [7]) is less than 0.0121 ng/mL. The MIC in series [3] (setting [8]) stood at 0.78 ng/mL (≈ 2.05 nM). In series [5] (H37RV), this compound displayed an MBC of 1560 ng/mL (≈ 4090 nM) and an MIC of 1560 ng/mL (≈ 4090 nM).
For the compound `C[C@H](c1ccccc1)N(C)c1nc(=O)c2cc(C(F)(F)F)cc([N+](=O)[O-])c2s1` [Compound 9, 2-{Methyl[(1R)-1-phenylethyl]amino}-8-nitro-6-(trifluoromethyl)-4H-1,3-benzothiazin-4-one], the melting point was 110 to 113 °C. Further, the MIC in series [4] is 0.4 ng/mL (≈ 0.977 nM). In addition, the MIC in series [1] (setting [6]) is less than 0.0121 ng/mL. Further, the MIC in series [2] (setting [7]) is less than 0.0121 ng/mL. Further, the MIC in series [3] (setting [8]) was less than 0.0121 ng/mL.
As to `CN(Cc1ccccc1)c1nc(=O)c2cc(Cl)cc([N+](=O)[O-])c2s1` [Compound 10, 2-[Benzyl(methyl)amino]-6-chloro-8-nitro-4H-1,3-benzothiazin-4-one], the melting point lay within 138 to 141 °C. The MIC in series [4] worked out at 25 ng/mL (≈ 69.1 nM). Besides, the MIC in series [1] (setting [6]) came to 1.56 ng/mL (≈ 4.31 nM). Further, the MIC in series [2] (setting [7]) is 0.31 ng/mL (≈ 0.857 nM). Also, in series [3] (setting [8]), the MIC was 6.2 ng/mL (≈ 17.1 nM). The MIC in series [5] (setting [9]) is less than 390 ng/mL. Also, in series [5] (setting [10]), the MBC worked out at 780 ng/mL (≈ 2160 nM).
With `NNC(=O)c1ccncc1` [Isoniazid (INH), Isoniazid, reference compound], the figures for the MIC in series [4] and in series [5] (setting [9]) were 125 ng/mL (≈ 911 nM) and 780 ng/mL (≈ 5690 nM), respectively. In series [5] (setting [10]), the MBC worked out at 1560 ng/mL (≈ 11400 nM).
